{
  "source": "paper PMC9184693",
  "about": "“Molecular mechanism of interaction between fatty acid delta 6 desaturase and acyl-CoA by computational prediction” (AMB Express, 2022)",
  "target": "T1, MpFADS6 (Micromonas pusilla delta 6 desaturase) (Micromonas pusilla, UniProt C1MMV2)",
  "T1 construct": "gene MICPUCDRAFT_32578; pYES2-MpFADS6 expressed in Saccharomyces cerevisiae INVSc1; membrane protein, whole-cell biotransformation",
  "T1 sequence (C1MMV2 entry or part of it)": "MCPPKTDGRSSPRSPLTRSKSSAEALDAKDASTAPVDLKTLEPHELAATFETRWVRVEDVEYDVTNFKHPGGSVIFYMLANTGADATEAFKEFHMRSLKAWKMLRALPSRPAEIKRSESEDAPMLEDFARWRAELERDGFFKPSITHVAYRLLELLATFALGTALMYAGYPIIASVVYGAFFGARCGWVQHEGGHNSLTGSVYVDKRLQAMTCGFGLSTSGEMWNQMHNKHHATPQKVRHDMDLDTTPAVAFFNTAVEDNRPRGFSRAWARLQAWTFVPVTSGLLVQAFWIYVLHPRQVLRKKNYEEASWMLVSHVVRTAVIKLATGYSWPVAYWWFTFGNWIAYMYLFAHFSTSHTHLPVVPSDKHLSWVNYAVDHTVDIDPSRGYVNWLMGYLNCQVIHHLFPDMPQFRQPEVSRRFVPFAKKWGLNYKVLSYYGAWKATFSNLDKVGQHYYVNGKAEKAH",
  "experiment": "whole-cell biotransformation in yeast, GC-MS of fatty acid methyl esters",
  "type": "cell-based",
  "conditions": "product from 0.25 mM ALA fed to cells; formed as the acyl-CoA",
  "data": [
    {"smiles": "CC/C=C\\C/C=C\\C/C=C\\C/C=C\\CCCCC(=O)O", "note": "[stearidonic acid]", "values": [
      {"measurement": "whole-cell biotransformation in yeast, GC-MS of fatty acid methyl esters", "value": "Desaturase activity is represented by the conversion rate of ALA to SDA"}
    ]}
  ]
}
